In patent publication EP0184822A2, “Novel anilide derivatives of substituted arylacetic acids” (SUMITOMO PHARMACEUTICALS COMPANY, LIMITED, priority 1984, dated 1986) one finds minimal effective dose data, which are given here for ten compounds.

The structures appear in SMILES notation.

This experiment relates to ddy-mice. The experiment can be described thus: Antihypoxic activity (survival time of mice under reduced pressure, 190 mmHg). The class given is in vivo. To be noted: Mus musculus, ip, injected intraperitoneally usually 30 minutes before the test, desiccator at 190 mmHg, effective = mean survival time above 140 sec and p<0.05 vs control. Here is the method:
Six ddy-mice weighing 20 - 27 g were used. Test compound was dissolved in saline or suspended in 0.5 % carboxymethylcellulose and injected intraperitoneally usually 30 minutes before the test at a dosage of 0.1 ml per 10 g of the bodyweight. Two mice were placed in a desiccator, the inside pressure of which was lowered to 190 mmHg within 2 to 3 seconds, and the survival time as well as the time interval between the start of the evacuation and the cessation of respiration was determined. The survival time of the mice which lived longer than 300 seconds was taken as 300 sec.
As for `CN(C)CCCOC1(Cc2ccccc2)CCCCCC1` [Bencyclane, reference compound], the minimal effective dose is less than 30 mg/kg. Under `NC(=O)c1cccc(NC(=O)C(Cc2ccccc2)c2ccccc2)c1` (stereo not drawn) [Example 1, alpha-benzyl-N-(3-carbamoylphenyl)benzeneacetamide] stands less than 10 mg/kg; under `O=C(Nc1cccc(O)c1)C(Cc1ccccc1)c1ccccc1` (stereo not shown) [Example 7], less than 10 mg/kg. Under `NC(=O)c1cccc(NC(=O)C(CCCc2ccccc2)c2ccccc2)c1` (stereo not shown) [Example 18] stands less than 10 mg/kg; under `O=C(Nc1cccc(O)c1)C(CCCc1ccccc1)c1ccccc1` (stereo not shown) [Example 23], less than 10 mg/kg; under `NS(=O)(=O)c1ccc(NC(=O)C(CCc2ccccc2)c2ccc(Cl)cc2)cc1` (stereo not shown) [Example 38], less than 10 mg/kg.

In turn, `Cc1ccc(C(CCc2ccccc2)C(=O)Nc2ccc(S(N)(=O)=O)cc2)cc1` (stereo not shown) [Example 40] showed a minimal effective dose of less than 10 mg/kg. `CCC(C(=O)Nc1ccc(O)cc1)c1ccccc1` (stereo not shown) [Known product (see page 2), reference compound] returned a minimal effective dose greater than 30 mg/kg.

`COc1ccc(Cc2nccc3cc(OC)c(OC)cc23)cc1OC` [Papaverine, reference compound] returned a minimal effective dose of less than 30 mg/kg. For `CC[C@]12CCCN3CCc4c(n(c5ccccc45)[C@@](O)(C(=O)OC)C1)[C@@H]32` [Vincamine, reference compound] the value was less than 30 mg/kg.
